According to patent publication US20030149021A1, “Piperazine mono(dithio)carbamate ester compounds and analogs thereof: preparation method and uses thereof” (Medinox, Inc., priority 2001, published 2003):

How the values were obtained:
[1] = Preliminary acute toxicity in mice; assay type: in vivo
Mouse sarcoma 180 (S180) = assay: Anticancer activity against implanted mouse sarcoma 180 (S180), tumor weight; assay type: in vivo, mice; conditions: for Inhibition (%) (% reduction in tumor mass): S180 in mice, tumor harvested at day 12
Method: Animals: Kuiming mice 18-22 g were provided by the animal department of Bejing Medical University. ICR mice were provided by Beijing Weitonglihua Experiemental Animal Technology, Inc. Each experiment used the same number of male mice and female mice.
Tumor cell line: Mouse sarcoma 180 (S180) was provided by the pharmaceutical group of National Key Laboratory of Natural and Mimic Medicine.
Compound 42 was prepared by the School of Pharmaceutical Sciences of Peking University. Cyclophosphoramide was purchased from Shanghai Hualian Pharmaceutical, Inc.
Tumor was removed from the mouse abdominal cavity. The tumor was diluted to 5×10^6/ml and implanted to the left axilla subcutaneously (0.2 ml per mouse) under sterile conditions. Twenty four (24) hours after implantation, animals were divided into two groups (10 mice per group), either 42 or cyclophosphoramide was given orally to animals once a day for 10 days.
At day 12, the tumor was harvested and the average tumor weight of each group was calculated.

CN1CCN(C(=S)SCCC(C#N)(c2ccccc2)c2ccccc2)CC1.Cl [Compound 42, 4-Methyl-piperazine-1-carbodithioc acid 3-cyano-3,3-diphenyl-propyl ester hydrochloride]
toxicity (in words) [1]: low toxicity
No of Death ([1]; mice, dose 10 G/kg, 20 animals at start): 0
inhibition against S180 (in words) (Mouse sarcoma 180 (S180)): significant inhibition
Inhibition (%) (% reduction in tumor mass) (Mouse sarcoma 180 (S180); 100 mg/kg orally once a day for 10 days): 74%
Inhibition (%) (% reduction in tumor mass) (Mouse sarcoma 180 (S180); 500 mg/kg orally once a day for 10 days): 80%

O=P1(N(CCCl)CCCl)NCCCO1 (stereo not drawn) [Cyclophosphoramide, reference compound]
Inhibition (%) (% reduction in tumor mass) (Mouse sarcoma 180 (S180); 30 mg/kg orally once a day for 10 days): 73%
